Values of other authors in patent US10028930B2, “Compositions capable of enhancing thermogenesis and uses thereof” (Specialty Nutrition Group, Inc., priority 2013, dated 2018).

Tests used:
[1] = NAFLD subjects, compared to placebo
[2] = test system: uncoupling proteins (UCP-1, UCP-2, UCP-3); conditions: rodents, brown and white adipose tissue

In the case of Fucoxanthin, the “resting energy expenditure (REE)” value [1] is given as “significantly increased” and the “expression of uncoupling proteins (UCP-1, UCP-2, UCP-3)” value [2] is given as “inducing the expression”.
